The values below come from patent US20240425523A1, “Compounds for the Degradation of EGFR Kinase” (Beigene Switzerland GMBH, priority 2023, published 2024).

As usually defined, the DC50 is the midpoint of the concentration-degradation curve. Higher therefore signals degradation only at high concentration. The term Dmax denotes the greatest extent of degradation seen. Low readings indicate a partial loss of target, high ones a fuller loss of target. As usually defined, the IC50 is the concentration that gives 50% inhibition. Low values mean higher potency, high ones lower potency.

Some results are limits rather than exact numbers.

Assay type in all cases: cell-based
The target of assay [1] is T1, EGFR L858R (BaF3-L858R cells) (Homo sapiens, UniProt P00533, L858R).
T1 construct: host or cells: BaF3
Description: Cell degradation of EGFR, HTRF assay, BaF3-L858R cells. The settings on record: 16 h treatment; for DC50: EGFR degradation. The method in brief: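 BaF3-L858R cells treated 16 h at 37° C, 5% CO2 with compound (top 10 uM final, 5-fold, 8 doses, 0.1% DMSO). DC50 from four-parameter fit; Dmax is maximum percent degradation.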

Assay [2] concerns the target T2, EGFR-L858R/C797S (H1975-clone #8 cells) (Homo sapiens, UniProt P00533, C797S/L858R).
T2 construct: expressed in transfected cells; host or cells: H1975 (endogenous EGFR knocked out, clone #8)
Put plainly: Cell degradation of EGFR, HTRF assay, H1975-clone#8 (L858R/C797S) cells. The note with it: 16 h treatment; for DC50: EGFR degradation. (In general: Time-resolved FRET reads energy transfer from a long-lived donor to a nearby acceptor.)

The target of assay [3] is T3, p-EGFR L858R (BaF3-L858R cells) (Homo sapiens, UniProt P00533, L858R).
T3 construct: host or cells: BaF3
Description: Cell p-EGFR inhibition assay, HTRF, BaF3-L858R cells. The note with it: 16 h treatment; for Imax (%): maximum percentage of pEGFR inhibition; for IC50: pEGFR inhibition. How it is done:
BaF3-L858R (abbv. L858R) cell were purchased from Kangyuan Bochuang Biotechnology (Beijing) Co., Ltd.
(§1) H1975-#23 and BaF3-L858R cells are treated with compounds diluted in 0.1% DMSO cell culture medium on day 2, incubate for 16 h, 37° C., 5% CO2. the final concentration of compounds in all assay is start with 10 uM, 5-fold dilution, total 8 doses were included.
(§2) After 16 h treatment, for H1975-#23 cells, add 50 ul HTRF 1× lysis buffer to each well; for BaF3-L858R cells, add 20 μl 4× lysis buffer to each well; seal the plate and incubate 1 hour at room temperature on a plate shaker; Once the cells are lysed, 16 μL of cell lysate are transferred to a PE 384-well HTRF detection plate; 4 μL of pre-mixed HTRF antibodies are added to each well; Cover the plate with a plate sealer, spin 1000 rpm for 1 min, Incubate overnight at room temperature; Read on BMG PheraStar with HTRF protocol (337 nm-665 nm-620 nm).
(§3) High control=Cell group with added DMSO and without compound, indicating microplate readings without p-EGFR inhibited.
(§4) Imax is the maximum percentage of inhibition.
(§5) The IC50 value of a compound can be obtained by fitting the following equation.
(§6) Wherein, X and Y are known values, and IC50, Hillslope, Top and Bottom are the parameters obtained by fitting with software. […] The experimental data were fitted by calculating and analyzing with Dotmatics data analysis software.

The target in assay [4] is p-EGFR Del19/C797S (H1975-clone #23 cells) (Homo sapiens, UniProt P00533). Put plainly: Cell p-EGFR inhibition assay, HTRF, H1975-clone#23 (DEL19/C797S) cells. The settings on record: 16 h treatment; for Imax (%): maximum percentage of pEGFR inhibition; for IC50: pEGFR inhibition. How it is done: The EGFR over-expressed cells then underwent knockout, in which the EGFR targeting sgRNA was designed to only target the endogenous EGFR copies and preserve the exogenous EGFR copies. Followed by the knockout, the edited H1975 cells were seeded in 96 well plates at the concentration of 1 cell/well, cultured for about 2 weeks to allow single clones formation. The formed clones were screened by DNA sequencing and whole exon sequencing analysis for the desired edition.
as §1, §2, §3, §4, §5, §6

The mark [5] stands for this setting: maximum percentage of degradation.

Regarding `Cc1cc2cc(n1)-c1cnn(C)c1OC[C@H]1CCC(C1)CN1/C(=N/C2=O)Nc2ccc(N3CCN(C4CCN(c5c(F)cc(NC6CCC(=O)NC6=O)cc5F)CC4)CC3)cc21` (stereo partly shown) [Example 92, 3-((4-(4-(4-((7^1R,7^3S,E)-1^1,2^6-dimethyl-3-oxo-5^2,5^3-dihydro-1^1H,5^1H-9-oxa-4-aza-5(2,1)-benzo[d]imidazola-2(2,4)-pyridina-1(4,5)-pyrazola-7(1,3)-cyclopentanacyclononaphane-5^6-yl)piperazin-1-yl)piperidin-1-yl)-3,5-difluorophenyl)amino)piperidine-2,6-dione], the values for the DC50 in assay [1] and in assay [2] were 1.97 nM and 3.12 nM, respectively. Moreover, the greatest degradation seen (Dmax) in assay [1] (setting [5]) is 85.8%; in assay [2] (setting [5]), 79.8%. Moreover, the “Imax (%)” value was found to be 97.2% in assay [3] and 100.1% in assay [4]. Also, the figures for the IC50 in assay [3] and in assay [4] were 10 nM and 1 nM, respectively.

As for `Cc1cc2cc(n1)-c1cnn(CCO)c1OC[C@H]1CCC(C1)CN1/C(=N/C2=O)Nc2ccc(N3CCN(C4CCN(c5cc(F)c([C@H]6CCC(=O)NC6=O)c(F)c5)CC4)CC3)cc21` [Example 122, (R)-3-(2,6-difluoro-4-(4-(4-((7^1R,7^3S,E)-1^1-(2-hydroxyethyl)-2^6-methyl-3-oxo-5^2,5^3-dihydro-1^1H,5^1H-9-oxa-4-aza-5(2,1)-benzo[d]imidazola-2(2,4)-pyridina-1(4,5)-pyrazola-7(1,3)-cyclopentanacyclononaphane-5^6-yl)piperazin-1-yl)piperidin-1-yl)phenyl)piperidine-2,6-dione], the figures for the DC50 in assay [1] and in assay [2] were 4.53 nM and 3.24 nM, respectively. The Dmax is 70.7% in assay [1] (setting [5]) and 52.2% in assay [2] (setting [5]). Moreover, the “Imax (%)” value in assay [3] is given as 96.8%; in assay [4], 98.9%. Besides, the IC50 in assay [3] came to 11 nM; in assay [4], 0.5 nM.

On to `Cc1cc2cc(n1)-c1c(C)nn(C)c1OC[C@H]1CC[C@H](C1)CN1/C(=N/C2=O)Nc2ccc(N3CCN(C4CCN(c5cc(F)c([C@H]6CCC(=O)NC6=O)c(F)c5)CC4)C[C@@H]3CF)cc21` [Example 211, (R)-3-(2,6-difluoro-4-(4-((R)-3-(fluoromethyl)-4-((7R,7^3S,E)-1^1,1^3,2^6-trimethyl-3-oxo-5^2,5^3-dihydro-1^1H,5^1H-9-oxa-4-aza-5(2,1)-benzo[d]imidazola-2(2,4)-pyridina-1(4,5)-pyrazola-7(1,3)-cyclopentanacyclononaphane-5^6-yl)piperazin-1-yl)piperidin-1-yl)phenyl)piperidine-2,6-dione], for which the values for the DC50 in assay [1] and in assay [2] were 0.73 nM and 3.07 nM, respectively. Also, the maximal degradation (Dmax) is 91.3% in assay [1] (setting [5]) and 88.8% in assay [2] (setting [5]). The entries for the “Imax (%)” value in assay [3] and in assay [4] were 89.34% and 99.96%, respectively. Further, the figures for the IC50 in assay [3] and in assay [4] were 2.05 nM and 1.6 nM, respectively.

`Cc1cc2cc(n1)-c1c(C)nn(C)c1OC[C@H]1CC[C@H](C1)CN1/C(=N/C2=O)Nc2ccc(N3CCN(C4CCN(c5cc(F)c([C@H]6CCC(=O)NC6=O)c(F)c5)CC4)C[C@@H]3C)cc21` [Example 195, (R)-3-(2,6-difluoro-4-(4-((S)-3-methyl-4-((7^1R,7^3S,E)-1^1,1^3,2^6-trimethyl-3-oxo-5^2,5^3-dihydro-1^1H,5^1H-9-oxa-4-aza-5(2,1)-benzo[d]imidazola-2(2,4)-pyridina-1(4,5)-pyrazola-7(1,3)-cyclopentanacyclononaphane-5^6-yl)piperazin-1-yl)piperidin-1-yl)phenyl)piperidine-2,6-dione]: the figures for the DC50 in assay [1] and in assay [2] were 1.83 nM and 1.13 nM, respectively. The Dmax in assay [1] (setting [5]) was 90.9%; in assay [2] (setting [5]), 93.9%. Besides, the “Imax (%)” value was found to be 90.34% in assay [3] and 99.96% in assay [4]. For the same molecule, the figures for the IC50 in assay [3] and in assay [4] were less than 0.128 nM and 1.44 nM, respectively.

Consider `COC[C@@H]1CN(c2ccc3c(c2)N2CC4CC[C@H](COc5c(c(C)nn5C)-c5cc(cc(C)n5)C(=O)/N=C/2N3)C4)CCN1CC1CCN(c2cc(F)c([C@H]3CCC(=O)NC3=O)c(F)c2)CC1` [Example 127, (R)-3-(2,6-difluoro-4-(4-(((S)-2-(methoxymethyl)-4-((7^1R,7^3S,E)-1^1,1^3,2^6-trimethyl-3-oxo-5^2,5^3-dihydro-1^1H,5^1H-9-oxa-4-aza-5(2,1)-benzo[d]imidazola-2(2,4)-pyridina-1(4,5)-pyrazola-7(1,3)-cyclopentanacyclononaphane-5^6-yl)piperazin-1-yl)methyl)piperidin-1-yl)phenyl)piperidine-2,6-dione], for which the DC50 worked out at 9.26 nM in assay [1] and 6.07 nM in assay [2]. In addition, the values for the Dmax in assay [1] (setting [5]) and in assay [2] (setting [5]) were 88.8% and 81.9%, respectively. Besides, the entries for the “Imax (%)” value in assay [3] and in assay [4] were 101.7% and 100.85%, respectively. In addition, the IC50 in assay [3] worked out at 4.89 nM; in assay [4], 4.06 nM.

For the molecule `Cc1cc2cc(n1)-c1cnn(C)c1OC[C@H]1CCC(C1)CN1/C(=N/C2=O)Nc2ccc(N3CCN(C4CCN(c5cc(F)c([C@H]6CCC(=O)NC6=O)c(F)c5)CC4)[C@@H](CO)C3)cc21` [Example 75, (R)-3-(4-(4-((R)-4-((7^1R,7^3S,E)-1^1,2^6-dimethyl-3-oxo-5^2,5^3-dihydro-1^1H,5^1H-9-oxa-4-aza-5(2,1)-benzo[d]imidazola-2(2,4)-pyridina-1(4,5)-pyrazola-7(1,3)-cyclopentanacyclononaphane-5^6-yl)-2-(hydroxymethyl)piperazin-1-yl)piperidin-1-yl)-2,6-difluorophenyl)piperidine-2,6-dione], the DC50 in assay [1] worked out at 1.6 nM; in assay [2] it was 0.97 nM. In addition, the Dmax came out at 82.7% in assay [1] (setting [5]) and 61.3% in assay [2] (setting [5]). Besides, the “Imax (%)” value in assay [3] worked out at 92.6%; in assay [4], 101.1%. In addition, the IC50 in assay [3] came to 7.9 nM; in assay [4] it was 0.6 nM.

For `COC[C@H]1CN(c2ccc3c(c2)N2CC4CC[C@H](COc5c(c(C(F)F)nn5C)-c5cc(cc(C)n5)C(=O)/N=C/2N3)C4)CCN1C1CCN(c2cc(F)c([C@H]3CCC(=O)NC3=O)c(F)c2)CC1` [Example 104, (R)-3-(4-(4-((R)-4-((7^1R,7^3S,E)-1^3-(difluoromethyl)-1^1,2^6-dimethyl-3-oxo-5^2,5^3-dihydro-1^1H,5^1H-9-oxa-4-aza-5(2,1)-benzo[d]imidazola-2(2,4)-pyridina-1(4,5)-pyrazola-7(1,3)-cyclopentanacyclononaphane-5^6-yl)-2-(methoxymethyl)piperazin-1-yl)piperidin-1-yl)-2,6-difluorophenyl)piperidine-2,6-dione], the half-maximal degradation concentration (DC50) in assay [1] came out at 4.1 nM; in assay [2], 3.7 nM. Besides, the Dmax in assay [1] (setting [5]) turned out to be 83.2%; in assay [2] (setting [5]), 86.9%. For the same molecule, the “Imax (%)” value in assay [3] was 95%; in assay [4], 100.5%. Moreover, the values for the IC50 in assay [3] and in assay [4] were 4.4 nM and 2 nM, respectively.

Turning to “3-(5-(4-((S)-4-((7^1R,7^3S,E)-1^1,2^6-dimethyl-3-oxo-5^2,5^3-dihydro-1^1H,5^1H-9-oxa-4-aza-5(2,1)-benzo[d]imidazola-2(2,4)-pyridina-1(4,5)-pyrazola-7(1,3)-cyclopentanacyclononaphane-5^6-yl)-2-methylpiperazin-1-yl)piperidin-1-yl)-6-methylpyridin-2-yl)piperidine-2,6-dione [Example 214]”, the figures for the DC50 in assay [1] and in assay [2] were 0.65 nM and 0.61 nM, respectively. Moreover, the “Dmax (%)” value in assay [1] (setting [5]) is on record as 82.61%; in assay [2] (setting [5]), 77.32%. For the same molecule, the “Imax (%)” value in assay [3] turned out to be 100.54%; in assay [4] it was 100.03%. Also, the IC50 in assay [3] amounted to 3.32 nM; in assay [4], 0.604 nM.
